Test results reported in patent publication US7414068B2, “Benzopyran derivatives substituted with secondary amines including tetrazole, method for the preparation thereof and pharmaceutical compositions containing them” (Dongbu Hannong Chemical Co., Ltd., priority 2002, dated 2008).

Columns and labels:
[1] = tested on: isolated rat aorta; assay: Vasodilating effect on blood vessel excised from rats (methoxamine-constricted aorta); conditions: isolated rat aorta constricted with methoxamine (3 μM); read-out: Concentration for inhibition of constriction induced by methoxamine in rat arota (IC50)
Description: Rats (350˜450 g, obtained from the Experimental Animal Team of the Korea Research Institute of Chemical Technology) were knocked to be unconscious by hitting the occipital region, sacrificed by cervical dislocation, and underwent thoracotomy. After being quickly removed, the thoracic aorta was deprived of the adipose tissue and cut into aortic rings of 3 mm width. The aorta was lightly rubbed with cotton club soaked in a modified Krebs Henseleit buffer (Physiological salt solution) to remove the inner epithelial layer therefrom. While being hung in an organ bath containing a physiological buffer, the vascular smooth muscle was allowed to equilibrate under a resting tension of 2 g and then, stand for 1 hour at 37° C. for stabilization, supplying a carbogen consisting of 95% O2˜5% CO2.
Thereafter, the vascular smooth muscle was constricted with 10^−5M phenylephrine and washed several times with physiological saline solution. The said procedure was repeated again to ensure the stable reactivity of vascular smooth muscle to repetitive constriction/relaxation.
Thereafter, 3×10^−6 M methoxamine was applied to induce an intensive constriction in the vascular smooth muscle. When the vasoconstriction induced by the methoxamine was reached and maintained to a maximum, test compounds and control material was cumulatively added to the organ bath in concentration of 1, 3, 10 and 30 μM, respectively, to examine the vasodilating effect. Cromakalim, BMS-180448 (the compound of formula 4) and BMS-191095 (the compound of formula 5), known to be the first generation KATP opener with potent vasodilating effect were used as control materials.
The change rate of constriction by the addition of the drugs compared to the maximal constriction induced by methoxamine was calculated to plot a concentration-relaxation response curve. Through a least linear regression analysis, IC50 that the drug concentration at which the vascular tissue is relaxed to 50% extent of the maximal constriction, was obtained for each drug.

[2] = tested on: cortical neuron cells; assay: Protective effect on iron-induced neuronal cell injury (LDH release); type: cell-based; conditions: FeSO4 50 μM; for protective effect on neuron cell: Inhibition (%, 30 μM compound addition): LDH reduction vs control; for IC50: LDH
Method: From the brains of 17˜18 day-old embryos, cortical neuron cells were isolated and then, cultured at 37° C. for 7˜9 days in a 5% CO2 incubator. The said cortical cell cultures were washed twice with MEM (Minimum essential medium) to reduce the serum level to 0.2%. […] Then, the compound of the said concentration was pre-treated for 30 min, respectively. For the experiment, test compound was dissolved in DMSO and diluted in a medium. At this time, the final concentration of DMSO was not allowed to exceed 0.1%. For control group, only vehicle was applied.
After the said pre-treatment, FeSO4 was added to the medium for a final concentration to be 50 μM. The medium was cultured in CO2 incubator for 24 hours. During the incubation, lactate dehydrogenase (LDH) was released by iron. The serum level of lactate dehydrogenase released into the medium was measured to assess necrosis of neuronal cell by the oxidative toxicity of iron. The protective effect on neuron cells of the test compounds was evaluated by calculating the LDH reduction rate of treatment-group compared with that of the control group.

[3] = tested on: brain homogenate; assay: Inhibitory effect against lipid peroxidation by iron (MDA quantification); type: biochemical, rat; conditions: 100 μM compound, FeCl2 400 μM, 37° C. 30 min
Method: The rat brain was homogenized in a Krebs buffer (15 mM HEPES, 10 mM glucose, 140 mM NaCl, 3.6 mM KCl, 1.5 mM CaCl2, 1.4 mM KH2PO4, 0.7 mM MgCl2, PH 7.4) and the supernatant separated by centrifugation at 12,000 rpm for 10 min was used for further experiments. FeCl2 was added for the final concentration to be 400 μM. Then the brain homogenate was allowed to stand at 37° C. for 30 min for the facilitation of oxidation. Each of the test compounds was added at a concentration of 100 μM. For control group, only vehicle was applied.
Iron facilitates the oxidation of the said brain homogenate to produce malondialdehyde (MDA), lipid peroxidation product. Thus, the lipid peroxidation was determined by MDA quantification. The inhibitory effect against lipid peroxidation of the test compounds was evaluated by calculating MDA reduction rate of the test compounds compared with that of the control group.
Typically, the MDA quantification is achieved by reacting samples with 2-thiobarbituric acid (TBA) and measuring the absorbance at 530 nm. However, this method is unsuitable to treat samples on a large scale because of a boiling step. Thus, in this experiment, N-methyl-2-phenylindole was used instead of TBA.

[4] = Acute oral toxicity test in rats; conditions: SD, rat, in vivo, single oral dose, suspended in 0.5% methyl cellulose, read-out: lethal dose (LD50) for oral administration
Method: In this test, six-week old SPF SD rats were used with two rats assigned to each group. Each group was consisted of two rats. The compounds prepared in example 1, 7, 11, 17, 22, 24, 26, 28, 30, 32, 34, 42, 52, 54, 55, 56, 57, 59, 60, 61, 70, 75, 77, 79, 81, 83, 85, and 89 were suspended in 0.5% methyl cellulose, respectively. […] Also, hematological test and biochemical analysis were accomplished. After sacrificing the animals, autopsy was performed for macroscopic observations of the organs and tissues. As a result, there was no significant changes in clinical symptoms, body weight and mortalities. Also in hematology, serum chemistry parameters, macroscopic observation and drug-related changes were not observed.

[5] = tested on: isolated ischemic rat heart; assay: Cardioprotective effect in ischemic heart models of rats (Langendorff); conditions: 10 μM
Method: Male rats (300˜450 g, obtained form the experimental animal team of the Korea Research Institute of Chemical Technology) were anaesthetized by the intra-peritoneal injection of sodium pentobarbital at a dose of 100 mg/kg. Heparin (1,000 U/kg) was injected to the tail vein and then the heart was enucleated. Particularly, cannula (PE 240) was inserted to the organ. Rats were mechanically ventilated with a rodent ventilator, in situ aorta cannula was inserted into their aorta. In retorograde perfusion, their hearts were enucleated, then just hung onto Langendorff Apparatus. Tissue attached at the heart was removed. Heart was perfused in oxygenated modified Krebs-Henseleit bicarbonate buffer (composition<mM/L>116 NaCl, 4.7 KCl, 1.1 MgSO4, 1.17 KH2PO4, 24.9 NaHCO3, 2.52 CaCl2, 8.32 Glucose, 2.0 Pyruvate) at a constant perfusion pressure (85 mmHg). A metal cannula attached to latex balloon filled with solvent (ethanol: water=1:1 (v/v)) was placed in the left ventricle through pulmonary vein and connected to a isovolumetric pressure transducer (H.S.E., Germany) for measurement of left ventricular pressure (LVP). The hearts were allowed to equilibrate for 15 min, at which time left ventricular end-diastolic pressure (EDP) was adjusted to 5 mmHg and this balloon volume was maintained throughout the experiment.
Baseline cardiac contractile function, heart rate (HR), and coronary flow (CF) were measured. Cardiac contractile function was calculated by […], yielding LVDP (left ventricular developed pressure). Double product RPP (rate-pressure product) (DP), another important parameter for indirectly assessing cardiac performance in Langendorff heart impossible to measure cardiac output was calculated by multiplying HR by LVDP.
Throughout the experiment, total coronary blood flow was measured by the use of coronary flow probe (diameter: 1.0 mm) installed in aortic cannula with electromagnetic flowmeter. Temperature of heart was steadily maintained by immersing the heart at 37° C. in physiological saline solution to which 95% O2/5% CO2 was constantly supplied. After stabilization for 15 min, the hearts were pre-treated for 10 min in vehicle (0.04% DMSO) or mixture containing the compound of the present invention or control material. Thereafter, cardiac contractile function, HR and CF were repeatedly measured. Global ischemia was induced by completely shutting off the perfusate for 30 min. Severity of ischemia was determined as the time to contracture (TTC, min) during global ischemia in which the first 5 mmHg increase in EDP was observed. Then, the hearts were reperfused and, 30 min later, contractile functions (LVDP, HR and CF) was repeatedly measured. After reperfusion was accomplished for 30 min, LDH (lactate dehydrogenase) was measured as a sensitive index for loss of cell viability with a kit.

COC(OC)[C@@]1(C)Oc2ccc(N)cc2[C@@H](N(Cc2nnnn2C)c2ccc(Cl)cc2)[C@@H]1O [Example 17, (2S,3S,4R)-6-amino-4-[N-(4-chlorophenyl)-N-(1-methyl-1H-tetrazol-5-ylmethyl)amino]-3-hydroxy-2-methyl-2-dimethoxymethyl-3,4-dihydro-2H-1-benzopyran]
IC50 [1]: > 30 µM | protective effect on neuron cell: Inhibition (%, 30 μM compound addition) ([2]; 24 hours): 110% | IC50 ([2]; Cortical neurone, 24 h): < 2 µM | IC50 ([2]; 24 hours): 2 µM | inhibitory effect against lipid peroxidation induced by iron (%, 100 μM) [3]: 87% | LD50 [4]: > 2000 mg/kg

COC(OC)[C@@]1(C)Oc2ccc(N)cc2[C@H](N(Cc2nnn(C)n2)c2ccccc2Cl)[C@H]1O [Example 30, (2S,3R,4S)-6-amino-4-[N-(2-chlorophenyl)-N-(2-methyl-2H-tetrazol-5-ylmethyl)amino]-3-hydroxy-2-methyl-2-dimethoxymethyl-3,4-dihydro-2H-1-benzopyran]
protective effect on neuron cell: Inhibition (%, 30 μM compound addition) ([2]; 24 hours): 103% | inhibitory effect against lipid peroxidation induced by iron (%, 100 μM) [3]: 84% | EDP (mmHg) ([5]; after 30 min global ischemia and reperfusion): 17.0 mmHg | LDH (u/g) ([5]; reperfusion LDH release): 15.7 u/g | LVDP X HR (%) ([5]; reperfusion, % of pre-treatment DP): 64.7% | TTC ([5]; time to contracture during global ischemia): 27.9 min | LD50 [4]: > 2000 mg/kg

COC(OC)[C@@]1(C)Oc2ccc(N)cc2[C@H](N(Cc2nnn(C)n2)c2ccc(Cl)cc2C)[C@H]1O [Example 42, (2S,3R,4S)-6-amino-4-[N-(2-methyl-4-chlorophenyl)-N-(2-methyl-2H-tetrazol-5-ylmethyl)amino]-3-hydroxy-2-methyl-2-dimethoxymethyl-3,4-dihydro-2H-1-benzopyran]
protective effect on neuron cell: Inhibition (%, 30 μM compound addition) ([2]; 24 hours): 103% | IC50 ([2]; Cortical neurone, 24 h): 2.6 µM | inhibitory effect against lipid peroxidation induced by iron (%, 100 μM) [3]: 85% | LD50 [4]: > 2000 mg/kg

COC(OC)[C@@]1(C)Oc2ccc(N)cc2[C@H](N(Cc2nnn(C)n2)c2ccccc2C(C)C)[C@H]1O [Example 52, (2S,3R,4S)-6-amino-4-[N-(2-isopropylphenyl)-N-(2-methyl-2H-tetrazol-5-ylmethyl)amino]-3-hydroxy-2-methyl-2-dimethoxymethyl-3,4-dihydro-2H-1-benzopyran]
protective effect on neuron cell: Inhibition (%, 30 μM compound addition) ([2]; 24 hours): 91% | IC50 ([2]; Cortical neurone, 24 h): 3 µM | inhibitory effect against lipid peroxidation induced by iron (%, 100 μM) [3]: 88% | LD50 [4]: > 2000 mg/kg

CCOC(=O)c1ccc(N(Cc2nnn(C)n2)[C@H]2c3cc(N)ccc3O[C@](C)(C(OC)OC)[C@@H]2O)cc1 [Example 54, (2S,3R,4S)-6-amino-4-[N-(4-ethoxycarbonylphenyl)-N-(2-methyl-2H-tetrazol-5-ylmethyl)amino]-3-hydroxy-2-methyl-2-dimethoxymethyl-3,4-dihydro-2H-1-benzopyran]
protective effect on neuron cell: Inhibition (%, 30 μM compound addition) ([2]; 24 hours): 98% | IC50 ([2]; Cortical neurone, 24 h): < 2 µM | IC50 ([2]; 24 hours): 1.5 µM | inhibitory effect against lipid peroxidation induced by iron (%, 100 μM) [3]: 87% | LD50 [4]: > 2000 mg/kg

COC(OC)[C@@]1(C)Oc2ccc(N)cc2[C@H](N(Cc2nnn(C)n2)c2ccc(F)cc2)[C@H]1O [Example 56, (2S,3R,4S)-6-amino-4-[N-(4-fluorophenyl)-N-(2-methyl-2H-tetrazol-5-ylmethyl)amino]-3-hydroxy-2-methyl-2-dimethoxymethyl-3,4-dihydro-2H-1-benzopyran]
protective effect on neuron cell: Inhibition (%, 30 μM compound addition) ([2]; 24 hours): 100% | IC50 ([2]; Cortical neurone, 24 h): 5.3 µM | inhibitory effect against lipid peroxidation induced by iron (%, 100 μM) [3]: 76% | LD50 [4]: > 2000 mg/kg

COC(=O)c1cccc(N(Cc2nnn(C)n2)[C@H]2c3cc(N)ccc3O[C@](C)(C(OC)OC)[C@@H]2O)c1 [Example 59]
protective effect on neuron cell: Inhibition (%, 30 μM compound addition) ([2]; 24 hours): 77% | IC50 ([2]; Cortical neurone, 24 h): < 2 µM | IC50 ([2]; 24 hours): 1.8 µM | inhibitory effect against lipid peroxidation induced by iron (%, 100 μM) [3]: 70% | LD50 [4]: > 2000 mg/kg

COC(OC)[C@@]1(C)Oc2ccc([N+](=O)[O-])cc2[C@H](N(Cc2nnn(C)n2)c2ccc(O)cc2C)[C@H]1O [Example 64, (2S,3R,4S)-6-nitro-4-[N-(2-methyl-4-hydroxyphenyl)-N-(2-methyl-2H-tetrazol-5-ylmethyl)amino]-3-hydroxy-2-methyl-2-dimethoxymethyl-3,4-dihydro-2H-1-benzopyran]
inhibitory effect against lipid peroxidation induced by iron (%, 100 μM) [3]: 79%

COC(OC)[C@@]1(C)Oc2ccc(N)cc2[C@@H](N(Cc2nnn(C)n2)c2ccc(Cl)cc2)[C@@H]1OC(C)=O [Example 89, (2S,3S,4R)-6-amino-4-[N-(4-chlorophenyl)-N-(2-methyl-2H-tetrazol-5-ylmethyl)amino]-3-acetoxy-2-methyl-2-dimethoxymethyl-3,4-dihydro-2H-1-benzopyran]
inhibitory effect against lipid peroxidation induced by iron (%, 100 μM) [3]: 81% | LD50 [4]: > 2000 mg/kg
